# Reference: patent US11912693B2, “Compounds for modulating S1P1 activity and methods of using the same” (TREVENA, INC., priority 2017, dated 2024)
# Legend:
# [1] = biological target: sphingosine-1-phosphate receptor 5 (S1P5) (Homo sapiens (Human), UniProt Q9H228); assay: Inhibition of cAMP production (HTRF), S1P5 CHO-K1 cells; assay type: cell-based
# Procedure: (§1) Stable clonal Chinese hamster ovary K1 (CHO-K1) cells co-expressing EA-β-arrestin2 and the human sphingosine-1-phosphate receptor 2 (NM_004230.3, S1P2), human sphingosine-1-phosphate receptor 3 (NM_005226, S1P3) and sphingosine-1-phosphate receptor 5 (NM_001166215.1, S1P5) with a C-terminal Prolink™ tag were purchased from DiscoverX corporation (S1P2: Cat #93-0256C2, S1P3: Cat #93-0217C2, S1P5: Cat #93-0583C2).
# (§2) Cell lines were cultured in AssayComplete™ Media 6 (DiscoverX Corporation, Cat #: 920018GF2) at 37° C. and 5% CO2 in a humidified CO2 and temperature-controlled incubator. To begin assay plating, cells were washed with dulbecco's phosphate buffered saline (CellGro, Cat #: 21-031-CV) and lifted from the culturing flask by incubation (37° C., 5 min) with CellStripper (Cellgro, Cat #: 25-056-CI). […] Plated cells were incubated overnight at 37° C. and 5% CO2 in a humidified CO2 and temperature-controlled incubator.
# (§3) S1P3 and S1P5 Agonist-promoted G-protein responses were determined by measuring changes in intracellular cAMP using the HTRF® cAMP HiRange kit (CisBio, Cat #: 62AM6PEJ) based on time-resolved fluorescence resonance energy transfer (TR-FRET) technology. […] Following a 30-minute room temperature incubation the components of the cAMP HiRange kit were added as per the manufacturer's instructions. After an hour incubation at room temperature, plates were analyzed by a BMG PheraStar microplate reader.
# (§4) The tables below include the efficacy of the compound as compared to a positive control, referred to as “SPAN”. These values are normalized to fingolimod, a known agonist of the sphingosine-1-phosphate 3 and 5 receptor or CYM5520, a known agonist of the sphingosine-1-phosphate 2 receptor. The tables also include potency values (pEC50) for modulating discrete receptor-mediated activities (inhibition of cAMP production or inositol monophosphate accumulation).
# [2] = biological target: T1, human sphingosine-1-phosphate receptor 1 (S1P1) (Homo sapiens (Human), UniProt P21453); assay: Inhibition of cAMP production (HTRF cAMP HiRange), S1P1 CHO-K1 cells; assay type: cell-based; conditions: for Emax: CHO-K1, efficacy (SPAN) normalized to fingolimod, read-out: hS1P1 cAMP SPAN; for hS1P1 cAMP pEC50: inhibition of cAMP production, S1P1 CHO-K1 cells
# In short: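 CHO-K1 cells stably co-expressing human S1P1 (C-terminal Prolink tag) and EA-β-arrestin2 were grown in AssayComplete Media 6 at 37° C. and 5% CO2, plated, and incubated overnight. Agonist-driven inhibition of intracellular cAMP was read by TR-FRET with the HTRF cAMP HiRange kit on a PheraStar reader. Potency is pEC50, and efficacy (SPAN) is normalized to fingolimod.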
# Target sequence in this assay (P21453 whole entry, looked up): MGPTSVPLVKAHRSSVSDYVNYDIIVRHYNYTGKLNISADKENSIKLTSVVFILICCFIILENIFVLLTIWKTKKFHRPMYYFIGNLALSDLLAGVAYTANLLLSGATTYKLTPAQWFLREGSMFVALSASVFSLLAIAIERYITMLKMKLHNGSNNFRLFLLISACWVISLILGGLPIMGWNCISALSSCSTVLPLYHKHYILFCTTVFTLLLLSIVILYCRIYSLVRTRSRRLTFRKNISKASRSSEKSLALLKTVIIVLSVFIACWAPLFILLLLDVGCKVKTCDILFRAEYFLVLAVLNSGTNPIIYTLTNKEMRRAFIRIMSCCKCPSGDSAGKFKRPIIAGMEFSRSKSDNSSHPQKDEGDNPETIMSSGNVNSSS
# [3] = biological target: human sphingosine-1-phosphate receptor 2 (S1P2) (Homo sapiens (Human), UniProt O95136); assay: Inositol monophosphate production (IP-one TB kit), S1P2 CHO-K1 cells; assay type: cell-based; conditions: for hS1P2 IP-one pEC50: inositol monophosphate accumulation
# Sequence of human sphingosine-1-phosphate receptor 2 (S1P2) (O95136 whole entry): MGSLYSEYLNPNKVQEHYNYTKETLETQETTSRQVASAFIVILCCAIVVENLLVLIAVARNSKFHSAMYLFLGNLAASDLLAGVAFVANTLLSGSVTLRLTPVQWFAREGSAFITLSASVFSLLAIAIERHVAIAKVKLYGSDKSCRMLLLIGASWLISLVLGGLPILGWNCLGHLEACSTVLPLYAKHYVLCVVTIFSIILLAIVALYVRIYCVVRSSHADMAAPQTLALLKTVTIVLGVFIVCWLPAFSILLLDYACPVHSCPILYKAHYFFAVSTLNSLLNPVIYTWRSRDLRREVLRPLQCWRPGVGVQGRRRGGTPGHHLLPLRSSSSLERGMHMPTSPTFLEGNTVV
# Procedure: as §1, §2
# S1P2 Agonist-promoted G-protein responses were determined by measuring changes in intracellular inositol monophosphate using the IP-one TB kit (CisBio, Cat #: 62IPAPEJ) based on time-resolved fluorescence resonance energy transfer (TR-FRET) technology. AssayComplete™ Cell Plating 2 Reagent was removed and replaced with 1× IP-one stimulation buffer (as per manufacturer's instructions) along with test or control compounds at the desired concentrations. Following a 60-minute incubation at 37° C. and 5% CO2 in a humidified CO2 and temperature-controlled incubator, the components of the IP-one TB kit were added as per the manufacturer's instructions. After an hour incubation at room temperature, plates were analyzed by a BMG PheraStar microplate reader.
# as §4
# [4] = biological target: T1, human sphingosine-1-phosphate receptor 1 (S1P1); assay: β-Arrestin2 recruitment assay (PathHunter), S1P1 CHO-K1 cells; assay type: cell-based; conditions: for Emax: CHO-K1, efficacy (SPAN) normalized to fingolimod, read-out: hS1P1 B-arrestin2 SPAN; for hS1P1 B-arrestin2 pEC50: β-arrestin2 recruitment, S1P1 CHO-K1 cells
# In short: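 Enzyme-fragment complementation read-out: agonist-driven β-arrestin2 binding to ProLink-tagged human S1P1 in stable CHO-K1 cells restores β-galactosidase, measured 1 h at room temperature after a 60 min 37° C. compound incubation. Potency as pEC50, efficacy relative to fingolimod (SPAN).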
# Target sequence in this assay (P21453 whole entry, looked up): as the sequence (P21453 whole entry, looked up) above
# Target sequence in this assay (P32121 whole entry partner, looked up): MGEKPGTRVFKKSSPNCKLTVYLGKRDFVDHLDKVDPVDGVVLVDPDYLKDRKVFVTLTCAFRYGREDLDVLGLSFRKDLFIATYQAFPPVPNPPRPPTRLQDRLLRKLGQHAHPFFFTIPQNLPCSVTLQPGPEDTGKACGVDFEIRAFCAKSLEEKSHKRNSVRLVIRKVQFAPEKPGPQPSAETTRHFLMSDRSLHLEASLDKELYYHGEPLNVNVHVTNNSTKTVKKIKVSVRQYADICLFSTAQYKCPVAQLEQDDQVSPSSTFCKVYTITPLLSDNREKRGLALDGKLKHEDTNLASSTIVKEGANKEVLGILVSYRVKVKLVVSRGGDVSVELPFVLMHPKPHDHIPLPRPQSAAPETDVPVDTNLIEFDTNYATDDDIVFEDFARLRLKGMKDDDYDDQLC
# [5] = biological target: human sphingosine-1-phosphate receptor 3 (S1P3) (Homo sapiens (Human), UniProt Q99500); assay: Inhibition of cAMP production (HTRF), S1P3 CHO-K1 cells; assay type: cell-based; conditions: for hS1P3 cAMP pEC50: inhibition of cAMP production
# Sequence of human sphingosine-1-phosphate receptor 3 (S1P3) (Q99500 whole entry): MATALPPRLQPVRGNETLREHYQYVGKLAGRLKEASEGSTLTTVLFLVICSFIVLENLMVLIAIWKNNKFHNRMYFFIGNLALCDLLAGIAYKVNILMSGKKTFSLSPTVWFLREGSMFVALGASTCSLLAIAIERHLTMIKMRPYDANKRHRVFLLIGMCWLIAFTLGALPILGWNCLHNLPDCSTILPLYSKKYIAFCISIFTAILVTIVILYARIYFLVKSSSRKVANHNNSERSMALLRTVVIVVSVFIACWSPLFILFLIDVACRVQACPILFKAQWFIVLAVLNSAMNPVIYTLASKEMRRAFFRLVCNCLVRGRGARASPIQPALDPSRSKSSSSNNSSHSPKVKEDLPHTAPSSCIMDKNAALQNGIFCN
# Procedure: as §1, §2, §3, §4
# [6] = tested on: paclitaxel induced peripheral neuropathy; assay: Reversal of allodynia induced by paclitaxel in mice (s.c. or p.o., von Frey frequency method); assay type: in vivo, c57bl/6 mice; conditions: Mus musculus, po, 1 h, 3 mg/kg p.o., tested 60 min after dosing, read-out: Screen @ 3 mg/kg po (% MPE)
# Procedure: Compounds were tested for efficacy in mouse models of chemotherapy induced peripheral neuropathy. […] For these studies […]/6 mice are habituated to the test environment and baseline measurements of pain sensitivity are assessed. To determine mechanical responses, the threshold for responses to punctate mechanical stimuli (mechanical hyperalgesia) was tested according to the frequency method. In brief, the plantar surface of the animal hindpaw was stimulated with a single von Frey monofilament (0.4 g) for approximately 1-2 seconds. If there was a withdrawal response, it was recorded as a positive response. A response was defined as a lifting or shaking of the paw upon stimulation. This was repeated ten times for each mouse. The final measurement for each mouse is the % non-response to stimulation for the ten trials. The % non-response to stimulation is converted to a % MPE. For paclitaxel induced peripheral neuropathy, a series of injections of PAC (6 mg/kg, i.p.) on days 1, 3, 5 and 7 is used to induce peripheral neuropathy. After approximately 14 days from the initiation of PAC injections, animals are re-assessed for mechanical sensitivity. […] On test day animals are dosed with compounds either subcutaneously or orally and tested for mechanical response by the frequency method either 30 min (s.c.) or 60 min (p.o.) after drug administration. Data is presented as a % MPE. For oxaliplatin induced peripheral neuropathy, a series of injections of OXA (4 mg/kg, i.p.) on days 1-5 is used to induce peripheral neuropathy. After approximately 14 days from the initiation of PAC injections, animals are re-assessed for mechanical sensitivity. […] On test day animals are dosed with compounds subcutaneously and tested for mechanical response by the frequency method 30 min after drug administration. Data is presented as a % MPE. One or more of the compounds show reversal of chemotherapeutic induced peripheral neuropathy.
# Sequence of sphingosine-1-phosphate receptor 5 (S1P5) (Q9H228 whole entry): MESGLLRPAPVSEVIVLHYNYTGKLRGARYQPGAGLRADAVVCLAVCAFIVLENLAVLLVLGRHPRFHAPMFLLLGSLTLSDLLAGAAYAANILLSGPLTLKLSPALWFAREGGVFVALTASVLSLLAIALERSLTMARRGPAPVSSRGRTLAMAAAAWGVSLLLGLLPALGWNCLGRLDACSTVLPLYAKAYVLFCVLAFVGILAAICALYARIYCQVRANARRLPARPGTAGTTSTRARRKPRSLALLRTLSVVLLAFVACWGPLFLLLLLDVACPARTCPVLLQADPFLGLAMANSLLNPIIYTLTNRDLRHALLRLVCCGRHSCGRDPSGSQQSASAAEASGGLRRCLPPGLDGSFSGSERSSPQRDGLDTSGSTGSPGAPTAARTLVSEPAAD
Structure (SMILES),"Emax ([1]; CHO-K1, efficacy normalized to fingolimod, read-out: hS1P5 cAMP SPAN) [%]","hS1P5 cAMP pEC50 ([1]; inhibition of cAMP production, hS1P5)",Emax [2] [%],hS1P1 cAMP pEC50 [2],"Emax ([3]; CHO-K1, efficacy normalized to CYM5520, read-out: hS1P2 IP-one SPAN) [%]",hS1P2 IP-one pEC50 [3],Emax [4] [%],hS1P1 B-arrestin2 pEC50 [4],"Emax ([5]; CHO-K1, efficacy normalized to fingolimod, read-out: hS1P3 cAMP SPAN) [%]",hS1P3 cAMP pEC50 [5],inhibition in vivo at 3 mg/kg [6] [%]
"C=CCNc1ccc(-c2nc(-c3ccc4[nH]ncc4c3)no2)cc1C#N [Compound 141, 5-(3-(1H-indazol-5-yl)-1,2,4-oxadiazol-5-yl)-2-(allylamino)benzonitrile]",> 50,>5.0,> 75,>6.5,< 50,<5.0,> 75,>5,> 50,>5.0,–
"CC(C)Nc1ccc(-c2nc(-c3ccc4oc(=O)[nH]c4c3)no2)cc1C#N [Compound 422, 2-(isopropylamino)-5-(3-(2-oxo-2,3-dihydrobenzo[d]oxazol-5-yl)-1,2,4-oxadiazol-5-yl)benzonitrile]",–,–,–,>6.5,–,>5.0,–,>5,–,>5.0,–
"CCC1(CC)CC(=O)c2cc(-c3nc(-c4ccc5[nH]c(=O)oc5c4)no3)ccc2O1 [Compound 445, 6-(5-(2,2-diethyl-4-oxochroman-6-yl)-1,2,4-oxadiazol-3-yl)benzo[d]oxazol-2(3H)-one]",–,–,–,>6.5,–,>5.0,–,>5,–,<5.0,–
"CC(C)Nc1ccc(-c2nc(-c3ccc4c(c3)NC(=O)C4)no2)cc1C#N [Compound 496, 2-(isopropylamino)-5-(3-(2-oxoindolin-6-yl)-1,2,4-oxadiazol-5-yl)benzonitrile]",–,–,–,>6.5,–,<5.0,–,>5,–,<5.0,–
"CCC1(CC)CC(=O)c2cc(-c3nc(-c4ccc(NC(C)=O)cc4OC(F)(F)F)no3)ccc2O1 [Compound 584, N-{4-[5-(2,2-diethyl-4-oxo-3,4-dihydro-2H-1-benzopyran-6-yl)-1,2,4-oxadiazol-3-yl]-3-(trifluoromethoxy)phenyl}acetamide]",–,–,> 75,>6.5,–,–,> 75,>5,–,–,> 50
"CC(C)Nc1ccc(-c2nnc(-c3cccc4[nH]cnc34)o2)cc1C#N [Compound 585, 5-[5-(1H-1,3-benzodiazol-4-yl)-1,3,4-oxadiazol-2-yl]-2-[(propan-2-yl)amino]benzonitrile]",–,–,–,>6.5,–,–,–,>5,–,–,< 50
"N#Cc1cc(-c2nnc(-c3cccc4[nH]cnc34)o2)ccc1NCC(F)F [Compound 586, 5-[5-(1H-1,3-benzodiazol-4-yl)-1,3,4-oxadiazol-2-yl]-2-[(2,2-difluoroethyl)amino]benzonitrile]",–,–,–,>6.5,–,–,–,>5,–,–,< 50
"N#Cc1cc(-c2nnc(-c3ccc4[nH]cnc4c3)o2)ccc1NC1CC1 [Compound 598, 5-[5-(1H-1,3-benzodiazol-5-yl)-1,3,4-oxadiazol-2-yl]-2-(cyclopropylamino) benzonitrile]",–,–,> 75,>6.5,–,–,> 75,>5,–,–,< 50
"N#Cc1cc(-c2nnc(-c3ccc4[nH]cnc4c3)o2)ccc1NC(CF)CF [Compound 600, 5-[5-(1H-1,3-benzodiazol-5-yl)-1,3,4-oxadiazol-2-yl]-2-[(1,3-difluoropropan-2-yl)amino]benzonitrile]",–,–,> 75,>6.5,–,–,> 75,>5,–,–,< 50
"COc1cnccc1-c1nc(-c2ccc3c(c2)nnn3C(C)C)no1 [Compound 606, 3-(1-isopropyl-1H-benzo[d][1,2,3]triazol-5-yl)-5-(3-methoxypyridin-4-yl)-1,2,4-oxadiazole]",–,–,> 75,>6.5,–,–,> 75,>5,–,–,> 50
"COc1ncccc1-c1nc(-c2ccc3c(c2)nnn3C(C)C)no1 [Compound 607, 3-(1-isopropyl-1H-benzo[d][1,2,3]triazol-5-yl)-5-(2-methoxypyridin-3-yl)-1,2,4-oxadiazole]",–,–,> 75,>6.5,–,–,> 75,>5,–,–,> 50
"CC(C)n1nnc2cc(-c3noc(-c4cccc5c4CCC5=O)n3)ccc21 [Compound 608, 4-{3-[1-(propan-2-yl)-1H-1,2,3-benzotriazol-5-yl]-1,2,4-oxadiazol-5-yl}-2,3-dihydro-1H-inden-1-one]",–,–,–,>6.5,–,–,–,>5,–,–,< 50
"CC(C)n1nnc2cc(-c3noc(-c4ccccc4N(C)C)n3)ccc21 [Compound 615, N,N-dimethyl-2-{3-[1-(propan-2-yl)-1H-1,2,3-benzotriazol-5-yl]-1,2,4-oxadiazol-5-yl}aniline]",–,–,–,>6.5,–,–,–,>5,–,–,> 50
"CC(C)n1nnc2cc(-c3noc(-c4cccc5c4CCC5O)n3)ccc21 (centres unmarked) [Compound 636, 4-{3-[1-(propan-2-yl)-1H-1,2,3-benzotriazol-5-yl]-1,2,4-oxadiazol-5-yl}-2,3-dihydro-1H-inden-1-ol]",–,–,–,>6.5,–,–,–,>5,–,–,< 50
"CC(C)Nc1ccc(-c2nnc(-c3ccc4oc(=O)[nH]c4c3)o2)cc1C#N [Compound 637, 5-[5-(2-oxo-2,3-dihydro-1,3-benzoxazol-5-yl)-1,3,4-oxadiazol-2-yl]-2-[(propan-2-yl)amino]benzonitrile]",–,–,–,>6.5,–,–,–,>5,–,–,> 50
